Assay results published in patent publication US9261497B2, “Method of treating cancer with modulators of SCFSkp2” (New York University, priority 2012, dated 2016).
Blank lines part the entries; values can stand above or below the compound they belong to.

Columns and labels:
[1] = biological target: T1, Skp2-p27 interaction (Homo sapiens, UniProt P61024+Q13309); experiment: p27 binding to HA-Skp2 (HA-immunoprecipitation); conditions: 10 μM; HA-Skp2 and Cks1 pretreated before p27-pT187; without ubiquitylation
T1 construct: made in house; host or cells: cell-free: rabbit reticulocyte lysate (TNT T7 Coupled Reticulocyte Lysate System, Promega) from pcDNA3.1 plasmids
Protocol: In vitro ubiquitylation assays were incubated with anti-HA affinity matrix (Roche) in IP buffer (50 mM Tris pH 7.6, 150 mM NaCl, 0.1% NP40, and Roche Complete EDTA-free protease tablet) for 16 h at 4° C. Beads were washed 3× with IP buffer and eluted with 2×SDS Sample Buffer (Boston Bioproducts) and 10% Beta-mercaptoethanol. For binding without ubiquitylation, HA-Skp2 IVT (10 μl) and Cks1 IVT (10 μl) were preincubated with anti-HA affinity matrix in IP buffer for 2 hours, with the addition of p27 kinase reaction (10 μl) for another 16 h incubation at 4° C. All reactions were analyzed after SDS/PAGE by western blotting. Where indicated, Skp2 and Cks1 were pretreated with 10 μM inhibitors for 30 minutes. Kinase reactions were performed with p27 IVT (10 μl) and 0.5 μg/ul CyclinE/CDK2 in kinase buffer (50 mM Tris HCL pH 7.5, 10 mM MgCl2, 2 mM ATP, 2.5 μM Okadaic Acid, and 0.6 mM DTT) at 30° C. for 1 h.

[2] = biological target: T2, His-6Skp1-Skp2-Cks1 (Homo sapiens, UniProt P61024+Q13309); experiment: Differential scanning fluorimetry (protein melt); type: binding; conditions: compound 75 μM; protein 1.5 μM
T2 construct: His6-tagged human Skp2 (residues 89-424); Human full-length Cks1 was produced as described; made in house
Protocol: Protein melt assays were carried out following the manufacturer's protocol on the LightCycler 480 System II (Roche) using Sypro Orange dye (Sigma). Fluorescence (465 nm excitation/580 nm detection) was acquired (10 data points/sec) at a ramp rate of 0.06° C./sec between 20° C. and 85° C. Melting temperatures were calculated using the LightCycler 480 Protein Melt analysis tool (Roche).

[3] = biological target: T3, SCF-Skp2 (Skp2-Cks1) (Homo sapiens, UniProt P61024+Q13309); experiment: In vitro ubiquitylation assay, Skp2-mediated p27 ubiquitylation (Wild-Type Cks1); type: biochemical; conditions: 50 μM compound, immunoblot for p27-(Ub)n
T3 construct: made in house; host or cells: cell-free: rabbit reticulocyte lysate (TNT T7 Coupled Reticulocyte Lysate System, Promega) from pcDNA3.1 plasmids
Protocol: The 96 hits were tested in an in vitro ubiquitylation assay driven by in vitro transcribed/translated Skp2, Cks1, and p27 (Sitry et al., “Three Different Binding Sites of Cks1 are Required for p27-ubiquitin Ligation,” J. Biol. Chem. 277:42233-42240 (2002)). Assay sensitivity was established for various criteria (FIG. 1B): Enhanced ubiquitylation with Cks1 (lane 2), kinase activity requirement (lane 3), and responsiveness to known inhibitors of Cullin (lane 5) or Cdk2 (lane 6) activity (Meijer et al., “Biochemical and Cellular Effects of Roscovitine, a Potent and Selective Inhibitor of the Cyclin-dependent Kinases cdc2, cdk2 and cdk5,” Eur. J. Biochem. 243:527-536 (1997); Soucy et al., “An Inhibitor of NEDD8-activating Enzyme as a New Approach to Treat Cancer,” Nature 458:732-736 (2009), which are hereby incorporated by reference in their entirety). Compounds showing at least 50% inhibition of Skp2-mediated p27 ubiquitylation (FIG. 1C) were counter-screened for inactivity against two anti-target E3 ligases: MDM2 and SCF-βTrCP (FIGS. 6A-B). Compounds C1 and C2 were identified from the primary VLS and C16 and C20 were identified from a second VLS (FIG. 2).
In vitro reconstituted assays were performed as previously described (Dorrello et al., “S6K1- and betaTRCP-mediated Degradation of PDCD4 Promotes Protein Translation and Cell Growth,” Science 314:467-471 (2006), which is hereby incorporated by reference in their entirety) with the exceptions of the use of (1) unlabeled proteins (wild-type and mutant Skp2 and Cks1, p27, Flag-βTrCP, and HA-PDCD4) generated by in vitro transcription-translation (TNT T7 Coupled Reticulocyte Lysate System, Promega); (2) chain elongation with non-methylated ubiquitin; and (3) immunoblotting to detect poly-ubiquitylation. The following reagents were obtained from Boston Biochem: UBE1, His-UbcH3, His-UbcH5c, Ubiquitin, and Ubiquitin Aldehyde. Additional reagents include CDK2/CyclinE1 (Sigma-Aldrich), S6K (Invitrogen), Okadaic acid (Sigma), and DMSO (Sigma-Aldrich). For ubiquitin charging, UBE1 (100 nM) and His-UbcH3 (10 ng/μl) were incubated with ubiquitin (2.5 μg/μl), ATP (2 mM), and 10 μM […] of inhibitors or Vehicle control for 60 min at 30° C. Reactions were stopped in nondenaturing 2× Sample Buffer, with the addition of 10% Beta-mercaptoethanol as indicated, and analyzed by Western blotting.

[4] = test system: p27 in ECC-1 cells; experiment: p27 immunoblot in ECC-1 cells (whole cell lysates, nuclear and cytoplasmic fractions); conditions: for Block of E2-induced decrease of p27: ECC-1, control siRNA transfected, 1 nM E2 plus 1 μM Lactacystin or 10 nM ICI 182,780
Protocol: The endometrial carcinoma cell line (derived from a well-differentiated endometrioid Type I ECA) ECC-1 cells (ATCC, Manassas, Va.) were plated at a density of 3×10^5/well/6-well plate and grown in DMEM:F12 supplemented with 10% FBS (BioWest, Ocala, Fla.). The cell line was passaged in the laboratory for fewer than 6 months after receipt. […] ECAs were plated at a density of 2.2×10^6 cells/6-well Primaria® plates (BD Biosciences, San Jose, Calif.) in McCoys 5A media without phenol red containing 10% charcoal-stripped FBS, 2 mM L-Glutamine (Invitrogen) and antimycotic antibiotic solution (Mediatech, Hendon, Va.).
For subcellular fractionation, following treatments, cells were separated into nuclear and cytoplasmic fractions using the NE-PER kit (Thermo Scientific), and 10 μg cytoplasmic and nuclear protein fractions were loaded onto SDS-PAGE for immunoblotting. […] The membranes were incubated with peroxidase-conjugated goat anti-rabbit or goat anti-mouse secondary antibodies in TBST (1:2000; Thermo Scientific). […] Protein bands were resolved using the SuperSignal West Dura kit (Thermo Scientific), visualized by exposure to X-ray film (HyBlot; Denville Scientific, Denville, N.J.), and following densitometric scanning (Kodak Logic-100), the protein bands were quantified by normalizing to β-actin and compared to the untreated control, and the values represented by the graphs of relative protein levels compared to actin in each well and shown as % of Vehicle control.

[5] = test system: p27 in 501 Mel, SK-MEL-147, and SK-MEL-173; experiment: Immunoblot of steady state protein levels in metastatic melanoma cell lines; type: cell-based, human; conditions: 501 Mel cells; 400 nM
Protocol: 501 Mel cells were also treated with MG-132 (a proteasome inhibitor) to confirm that p27 and p21 induction were responsive to known UPS inhibitors (FIG. 4A, right). […] Thus, treatment of cells with inhibitors targeting the Skp2-Cks1 interface induces protein levels of specific Skp2-Cks1 substrates.
Whole cell extracts were prepared and immunoblotted as previously described Dorrello et al., “S6K1- and betaTRCP-mediated Degradation of PDCD4 Promotes Protein Translation and Cell Growth,” Science 314:467-471 (2006), which is hereby incorporated by reference in its entirety. For knockdown of Skp2 or p27, shRNAs were induced with 2 ng/ml doxycycline for 48 hours, with the last 16 hours co-treated with 0.1% Vehicle or 10 μM inhibitors as indicated. For cycloheximide chase, cells were pretreated 16 h with 0.1% Vehicle or 10 μM inhibitors, followed by 20 ng/ml cycloheximide (Sigma) and whole cell extracts collected for each time point. […] Scanning densitometry was performed on immunoblots using Image J software. For cell cycle analysis, cells were treated with 0.1% Vehicle or 10 μM inhibitors for 16 h. 1×10^6 cells were fixed in 70% ethanol for 2 h, treated with 200 μg/ml RNase A (Invitrogen) for 30 minutes, and stained with 20 μg/ml Propidium Iodine (Sigma). All samples were assayed in triplicates. Signal was detected using the Becton Dickson LSRII flow cytometer and cell cycle profiles were analyzed with FloJo.

[6] = test system: ECC-1 cells; experiment: ECC-1 cell proliferation (MTS assay); type: cell-based, human; conditions: Lactacystin-treated cells

T1 sequence (Q13309 whole entry): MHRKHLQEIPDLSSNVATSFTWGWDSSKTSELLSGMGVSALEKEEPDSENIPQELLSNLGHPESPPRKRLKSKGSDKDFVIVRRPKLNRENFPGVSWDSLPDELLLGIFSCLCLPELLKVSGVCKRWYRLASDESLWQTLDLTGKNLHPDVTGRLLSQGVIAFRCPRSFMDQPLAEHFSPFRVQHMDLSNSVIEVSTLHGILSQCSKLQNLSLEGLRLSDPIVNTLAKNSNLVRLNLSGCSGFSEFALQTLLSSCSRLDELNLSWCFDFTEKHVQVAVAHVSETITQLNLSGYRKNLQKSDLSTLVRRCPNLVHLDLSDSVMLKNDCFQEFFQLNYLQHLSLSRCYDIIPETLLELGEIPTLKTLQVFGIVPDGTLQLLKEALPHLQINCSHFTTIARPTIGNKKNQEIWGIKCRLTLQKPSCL
T1 sequence (P61024 whole entry): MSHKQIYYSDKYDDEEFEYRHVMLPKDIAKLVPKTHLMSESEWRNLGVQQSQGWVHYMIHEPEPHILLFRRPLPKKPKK
T1 sequence (P63208 whole entry partner): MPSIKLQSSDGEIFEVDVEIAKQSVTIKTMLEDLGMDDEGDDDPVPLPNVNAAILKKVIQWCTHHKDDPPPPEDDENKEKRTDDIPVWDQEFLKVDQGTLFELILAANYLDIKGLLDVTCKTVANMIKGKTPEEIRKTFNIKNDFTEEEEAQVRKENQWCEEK
T1 sequence (Q13616 whole entry partner): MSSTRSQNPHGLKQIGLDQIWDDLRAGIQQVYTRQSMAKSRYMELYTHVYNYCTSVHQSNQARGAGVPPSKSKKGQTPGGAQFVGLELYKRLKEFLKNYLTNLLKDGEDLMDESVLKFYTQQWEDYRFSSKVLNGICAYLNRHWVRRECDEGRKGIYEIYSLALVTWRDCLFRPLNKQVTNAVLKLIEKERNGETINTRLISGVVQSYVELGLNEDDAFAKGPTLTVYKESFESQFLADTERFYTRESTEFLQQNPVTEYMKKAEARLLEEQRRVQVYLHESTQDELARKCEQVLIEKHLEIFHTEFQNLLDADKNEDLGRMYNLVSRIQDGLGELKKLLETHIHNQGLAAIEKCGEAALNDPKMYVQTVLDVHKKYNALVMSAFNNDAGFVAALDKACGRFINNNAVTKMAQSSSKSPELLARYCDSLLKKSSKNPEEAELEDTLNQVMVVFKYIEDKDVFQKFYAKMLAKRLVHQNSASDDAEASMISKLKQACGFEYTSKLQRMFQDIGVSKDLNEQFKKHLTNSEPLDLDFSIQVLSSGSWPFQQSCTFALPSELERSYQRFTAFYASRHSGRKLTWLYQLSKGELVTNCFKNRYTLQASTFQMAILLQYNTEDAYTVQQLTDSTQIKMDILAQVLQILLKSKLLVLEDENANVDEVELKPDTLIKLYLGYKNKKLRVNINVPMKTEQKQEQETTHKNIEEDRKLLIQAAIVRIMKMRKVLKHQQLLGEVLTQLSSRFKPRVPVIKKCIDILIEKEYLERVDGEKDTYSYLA
T1 sequence (P62877 whole entry partner): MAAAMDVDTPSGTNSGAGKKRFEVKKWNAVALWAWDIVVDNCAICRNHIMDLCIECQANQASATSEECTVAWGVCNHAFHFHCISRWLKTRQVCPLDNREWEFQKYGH
T2 sequence (Q13309 89-424 limits assumed): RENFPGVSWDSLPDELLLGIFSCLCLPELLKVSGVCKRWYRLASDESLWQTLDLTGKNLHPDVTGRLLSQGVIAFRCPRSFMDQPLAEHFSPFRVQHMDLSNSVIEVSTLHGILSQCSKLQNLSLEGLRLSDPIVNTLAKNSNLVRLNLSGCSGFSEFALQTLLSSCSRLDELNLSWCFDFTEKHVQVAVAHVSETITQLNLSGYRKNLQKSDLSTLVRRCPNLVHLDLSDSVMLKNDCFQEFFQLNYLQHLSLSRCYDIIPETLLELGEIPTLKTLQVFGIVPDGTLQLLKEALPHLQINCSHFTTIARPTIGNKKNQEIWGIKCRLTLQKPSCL
T2 sequence (P61024 whole entry, the tested form may be a part): as the sequence (P61024 whole entry) above
T3 sequence (Q13309 whole entry): as the sequence (Q13309 whole entry) above
T3 sequence (P61024 whole entry): as the sequence (P61024 whole entry) above
T3 sequence (P63208 whole entry partner): as the sequence (P63208 whole entry partner) above
T3 sequence (Q13616 whole entry partner): as the sequence (Q13616 whole entry partner) above
T3 sequence (P62877 whole entry partner): as the sequence (P62877 whole entry partner) above

SMILES: CCN1C(=O)C(=Cc2ccccc2O)C(C(=O)OC)=C1C [UM-C2b, reference compound]
- p27 binding to Skp2 [1]: lost the ability to inhibit p27 from binding to Skp2

- Shift of melting temperature (Tm) of purified protein complex [2]: not
SMILES: COc1ccc(Br)cc1C=C1SC(=S)N(Cc2cccnc2)C1=O [UM-C1, reference compound]
- p27 binding to Skp2 [1]: lost the ability to inhibit p27 from binding to Skp2

- Inhibition of Skp2-mediated p27 ubiquitylation [3]: partially reduced p27 ubiquitylation
SMILES: COCCCN1C(=O)C(=Cc2ccccc2O)C(C(=O)OC)=C1C [UM-C2a, reference compound]

SMILES: COc1cccc(-c2cc(=O)c3ccccc3o2)c1N [PD 98059, PD98059, reference compound]
- p27 less than control ([4]; ECC-1, E2 plus 20 μM PD98059, 18 h): 24%

SMILES: NS(=O)(=O)OC[C@@H]1C[C@@H](n2ccc3c(N[C@H]4CCc5ccccc54)ncnc32)C[C@@H]1O [MLN-4924, reference compound]
- Neddylation of Cul1 [5]: inhibited neddylation of Cul1

SMILES: CC(=O)N[C@@H](CSC(=O)[C@]1([C@@H](O)C(C)C)NC(=O)[C@H](C)[C@@H]1O)C(=O)O [Lactacystin, reference compound]
- p27 in nuclear and cytoplasmic fractions ([4]; ECC-1 (FIG. 11D)): increases p27 in both subcellular fractions
- Block of E2-induced decrease of p27 ([4]; 18 h): completely blocked
- Inhibition of proliferation [6]: 36%

SMILES: C[C@]12CC[C@@H]3c4ccc(O)cc4C[C@@H](CCCCCCCCC[S+]([O-])CCCC(F)(F)C(F)(F)F)[C@H]3[C@@H]1CC[C@@H]2O (some centres unmarked) [ICI 182,780, reference compound]
- Block of E2-induced decrease of p27 ([4]; 18 h): nearly completely blocked
- Effect on E2-induced decrease in nuclear p27 ([4]; ECC-1, E2 plus 10 nM ICI 182,780, 18 h): to the level of untreated control
